Reference: ChEMBL document CHEMBL1137335, “Multivalent effects of RGD peptides obtained by nanoparticle display” (J Med Chem, 2006)
pEC50, pIC50: −log10 of the molar value. Positions of bridges follow the written chain, without caps; N, C: chain ends. Residues, ends and D or L forms follow the SMILES beside them. *: point of attachment. 5FAM = O=C1OC2(c3ccc(O)cc3Oc3cc(O)ccc32)c2ccc(C(=O)*)cc21

Assays:
[1] = system: HUVEC; test: Antiadhesive activity against human HUVEC; type: functional, cell-based
[2] = system: BT-20; test: Antiadhesive activity against human BT20 cells; type: functional, cell-based
[3] = system: 9L; test: Level of peptide binding to rat 9L cells indicating presence of integrin alphaVbeta3; type: functional
[4] = system: HUVEC; test: Uptake in human HUVEC; type: functional, cell-based
[5] = system: BT-20; test: Uptake in human BT20 cells; type: functional, cell-based
[6] = system: BT-20; test: Level of peptide binding to human BT20 cells indicating presence of integrin alphaVbeta3; type: functional

- pIC50 [2]: 3.89
- pEC50 [5]: 5.92
Compound: NCC(=O)N[C@@H](CO)C(=O)N[C@@H](CO)C(=O)N[C@@H](CCCCNC(=O)c1ccc2c(c1)C(=O)OC21c2ccc(O)cc2Oc2cc(O)ccc21)C(=O)NCC(=O)NCC(=O)NCC(=O)N[C@H]1CSSC[C@@H](C(=O)O)NC(=O)[C@H](CC(=O)O)NC(=O)CNC(=O)[C@H](CCCN=C(N)N)NC1=O (H-GSSK(5FAM)GGGCRGDC-OH; disulfide 8-12)
- pIC50 [1]: 6.12
- Activity [3]: 0.16 pmol
- pEC50 [4]: 5.22
- Activity [6]: 0.82 pmol
